# Reference: US9414598B2, “Protecting wood with stabilized boron complexes” (priority 2006, dated 2016)
# Like-named read-outs stand apart in the source and are kept apart here. Marks after values point to notes of the source that are not given here.
# How the values were obtained:
# Brown rot = conditions: 12 weeks decay
# Description: (§1) Decay tests were conducted on wood blocks, both leached and unleached. Samples were halved, with one group subjected to weathering and the other group maintained unweathered. Both sets of samples were subjected to a soil block culture test according to the AWPA E10-01 method. For each block, the percentage of mass loss was determined. These samples were allowed to decay for 12 weeks for brown rot decay and for 16 weeks for white rot decay.
# White rot = conditions: for % mass loss (std. dev): White rot, 16 weeks decay
# Description: as §1
# [1] = for Mean values of the initial boron retention: before leaching, (standard deviations); for Mean of boron retained in wood (std. dev): mean of three samples
# Description: Accelerated leaching tests were performed according to AWPA E11-97 (AWPA, 2003). Four Southern yellow pine (Pinus sp.) samples were leached, each in its own leaching flask. At the end of each leaching period, the leachate was collected and the samples were air dried for two weeks. The amount of boron retained in the wood was determined by inductive coupled plasma (ICP) spectrometry after boron was extracted with hydrochloric acid from the ground wood.
# Description for Coptotermes formosanus: The wood cubes also were subjected to a termite mortality test (Coptotermes formosanus).
compound,measurement,setting,value
"OB(O)O [Boric acid only, Boric acid]",Termite mortality (%),Coptotermes formosanus; in vivo,4.3%
same,protection against termites (in words),"Coptotermes formosanus; treated wood cubes, boron-CA-SS after leaching",adequate protection against termites
same,% mass loss (std. dev),Brown rot; Not leached samples,3.21 (0.22) %
same,% mass loss (std. dev),Brown rot; leached samples,18.88 (2.30) %
same,% mass loss (std. dev),White rot; Not leached samples,2.51 (0.51) %
same,% mass loss (std. dev),White rot; leached samples,16.59 (2.19) %
same,decay resistance (in words),"White rot; leached samples, summary of Table 4 for white rot and brown rot",no significant decay resistance
same,Mean values of the initial boron retention,"[1]; Southern yellow pine cubes, samples for Leaching test",2075.0^a (2.19)^b ppm
same,Mean of boron retained in wood (std. dev),[1]; leaching duration 0 (Not unleached),2075.0 (80.18) ppm
same,Mean of boron retained in wood (std. dev),[1]; leaching duration 6 hours,1005.00 (125.2) ppm
same,Mean of boron retained in wood (std. dev),[1]; leaching duration 24 hours,737.13 (40.85) ppm
same,Mean of boron retained in wood (std. dev),[1]; leaching duration 2 days,99.32 (17.84) ppm
same,Mean of boron retained in wood (std. dev),[1]; leaching duration 4 days,25.37 (2.81) ppm
same,Mean of boron retained in wood (std. dev),[1]; leaching duration 6 days,2.908 (0.61) ppm
same,Mean of boron retained in wood (std. dev),[1]; leaching duration 8 days,2.941 (0.83) ppm
same,Mean of boron retained in wood (std. dev),[1]; leaching duration 10 days,2.89 (0.79) ppm
same,Mean of boron retained in wood (std. dev),[1]; leaching duration 12 days,2.79 (0.53) ppm
same,Mean of boron retained in wood (std. dev),[1]; leaching duration 14 days,2.8 (0.82) ppm
same,loss of boron on leaching (in words),[1]; leaching of treated wood cubes,lost most of their boron within 6 hours
same,Mean values of the initial boron retention,[1]; samples for Brown rot test,2227.31 (3.27) ppm
same,Mean values of the initial boron retention,[1]; samples for White rot test,2225.43 (1.27) ppm
